From patent US20210254056A1, “IDENTIFICATION AND TARGETED MODULATION OF GENE SIGNALING NETWORKS” (CAMP4 THERAPEUTICS CORPORATION, priority 2017, published 2021)

Legend:
[1] = system: TF1 cells; assay: Biological activity of maximal compound dosages in TF1 cells; format: cell-based; settings: 10 μM dose
Protocol: (§1) The stock for each compound was at 10 mM and were diluted to 100 μM with RMPI+GCMSF (2% DMSO). Cells were collected and resuspended in 8 mL of RPMI+GMCSF at a concentration of 1×10^6 cells/mL. For the TF1 cells, at each well of a 6-well plate were added 1 mL of cells, 300 μL of 100 μM compound dilution, and 1.7 mL of RMPI+GCMSF+1.5% DMSO (1% final DMSO concentration in 3 mL total). One mL of the CI-CB-CD34+ cells, 300 μL of 100 μM compound dilution, and 700 μL of RMPI+GCMSF ([…]) were added to each well of a 6-well plate.
(§2) Compound dilutions were performed as described in Example 1. […] In a 6-well format, there were 1 million cells/well=1 million cells/ml=1000 cells/pl. […].

[2] = system: CI-CB-CD34+ cells; assay: Biological activity of maximal compound dosages in CI-CB-CD34+ cells; format: cell-based, human; settings: 10 μM dose
Protocol: as §1, §2

[3] = system: TF1 RPS19 KD cells; assay: Dose titration of compounds into RPS19 KD TF1 cells (p53 by qRT-PCR, viability ATP assay); format: cell-based; settings: after transduction with constitutive pLKO shRNA plasmid
Protocol: The concentration of the compounds needed to observe a rescued DBA phenotype in TF1 RPS19 KD cells was determined via qRT-PCR analysis of p53 levels. […] Nine different cell lines were used. […] Cells were collected in separate tubes in a concentration of 1000 cells/μL to reach a concentration of 50,000 cells/50 μL per well. Cell were centrifuged at 1,200 rpm for 5 minutes. Then, the media was aspirated and cells were resuspended in RPMI+GCMSF medium.
For the preparation of Dose 1 (final concentration on plate 25 μM), a 50 μM solution was made by adding 300 μL of […] to 300 μL of RPM1+GCMSF+2% DMSO (final 1% DMSO). The 50 μM solution was further diluted to 2× when added with the cells into a well, resulting in a final concentration of 25 μM. […] DMSO 1% was used for each cell type as DMSO control.
A 96-well plate was used for analysis of each dose on each cell type. Fifty μL of each cell type and 50 μL of a diluted compound are added to the corresponding wells for a total of 100 μL RPMI+GCMSF+1% DMSO, with 50,000 cells/well. The following day, 50 μL for RNA (25,000 cells) and 50 μL for viability ATP assay (25,000 cells) were collected from each well.
Dose titration was performed as described in Example 1. […] Phenotype rescue was determined by measuring p53 levels by qRT-PCR analysis. […]

[4] = system: normal cord blood erythroblast cells; assay: qRT-PCR after constitutive (pLKO) shRNA knockdown in normal CD34+ cells; format: cell-based, human; settings: for increase in expression of p21: pLKO constitutive knockdown, compared to the level observed for the p53 knockdowns, qRT-PCR; for RQ, ALAS2: relative quantification of ALAS2 expression vs control sh_NT; for RQ, BCLXL: relative quantification of BCLXL expression vs control sh_NT; for RQ, MYC: relative quantification of MYC expression vs control sh_NT; for RQ, P53: relative quantification of P53 expression vs control shNT; for RQ, RPL11: relative quantification of RPL11 expression vs control shNT; for RQ, p21: relative quantification of p21 expression vs control sh_NT; for RQ, p53: relative quantification of p53 expression vs control sh_NT
Protocol: Conditionally immortalized cord blood CD34+ cells were transduced with the shRNA lentiviruses using the retronectin-transduction protocol (Clontech). Puromycin selection was performed 24-48 hours post-transduction. Cells were counted to monitor cell viability. After 12 days, which allowed for a large biomass, knockdown efficiency was analyzed. qRT-PCR was used to identify changes in mRNA, and Western blot was used to determine levels of protein depletion.
(§3) For RNA extraction, 1×10^6 cells were harvested in 500 μL of TRIZOL reagent (Thermo Scientific), and incubated for 5 minutes at room temperature. Then, 100 μL of chloroform was added to the cells, and the mixture was vortexed and then centrifuged at 12,000× gravity for 15 minutes. The aqueous phase was transferred to fresh tubes and one volume of 70% ethanol was added. The TRIZOL Plus RNA purification Kit (Thermo Scientific) was used for the remaining extraction protocol according to the manufacturer's instructions. For the conversion of RNA to cDNA the High Capacity cDNA RT kit (Thermo Scientific) was used according to the manufacturer's instructions. The cDNA was analyzed with qRT-PCR to determine the fold change of knockdown cells using Taqman Fast PCR mix and Applied Biosystems probes (Thermo Scientific).
shRNAs targeting RPS19, p53, or RPL11 were delivered to normal cord blood erythroblast cells using either the pLKO (constitutive) and pTRIPZ (inducible) plasmids described in Example 1. The mRNA expression of the p53 pathway proteins; progenitor factor GATA2; and differentiation factors HBB and GATA1 were measured by qRT-PCR. Cells not transduced with a shRNA as well as cells transduced with a non-targeting shRNA served as controls.
HBB is associated with differentiation of CD34^+ cells, and p21 is associated with the p53 pathway. […]
To determine the effect of p53 knockdown on expression of other genes, cells were also transduced with pLKO containing p53_sh4 or p53_sh5. To determine the effect of RPS19 knockdown on expression of other genes, cells were transduced with pLKO containing RPS19_sh1, RPS19_sh2, RPS19_sh3, RPS19_sh4, RPS19_sh5, and sh_NT as a control. The relative quantifications of expression of differentiation associated genes ALAS2 and HBB, immortalization factors BCLXL and MYC, and targets of interest p53 and RPS19 are shown in Table 79.

[5] = system: CB-CI-IRES-CD34+ cell line; assay: qRT-PCR and knockdown efficiency of shRNAs in conditionally immortalized cord blood CD34+ cells; format: cell-based, human; settings: qRT-PCR; CB-CI-IRES-CD34+ cells transduced with pTRIPZ shRNA; B-ACTIN control; relative to pTRIPZ NT
Protocol: as §3
qRT-PCR was used to analyze expression of p53 pathway-associated genes p21, RPS19, and RPL11; differentiation marker HBB; and internal control B-ACTIN in the cord blood conditionally immortalized CD34+ (CB-CI-IRES-CD34+) cell line transduced with the pTRIPZ plasmid containing NT (Model 9), RPL11_sh1 (Model 4) and RPL11_sh2 (Model 5) for a RPL11 knockdown, and RPS19_sh1 (Model 6) and RPS19_sh2 (Model 7) for a RPS19 knockdown.
qRT-PCR was used to determine the levels of expression of ALAS2, GAPDH, GATA1, GATA2, HBB, and p53 in differentiated CB-CI-IRES cells using GAPDH as an internal control as shown in Table 86.
Gene expression was compared for CB-CI-IRES cells during expansion and differentiation. […] GAPDH was used as an internal control.
The efficiency of different shRNAs were tested in a conditionally immortalized cord blood erythroblast cell system to mimic DBA. The pTRIPZ was used to transduce these cells with sh1 (dox inducible shRPS19) or sh2 (dox inducible shRPS19), and pLKO was used to transduce a group of cells with sh5 (shRPS19). qRT-PCR was used to determine the level of gene expression in RPS19 mRNA knockdown in each group of cells. The percent of knockdown is shown in Table 90 after 1 week (T1), 2 weeks (T2), and 3 weeks (T3) for each shRNA.

[6] = system: hepatocytes; settings: {}
[7] = relative quantification of HBB expression vs control shNT, pLKO constitutive shRNA, GAPDH internal control, Table 78
[8] = relative quantification of HBB expression vs control sh_NT, pLKO shRNA, B-ACTIN, Table 79
[9] = pLKO constitutive shRNA, GAPDH internal control, Table 78
[10] = relative quantification of RPS19 expression vs control shNT, pLKO constitutive shRNA, GAPDH internal control, Table 78
[11] = relative quantification of RPS19 expression vs control sh_NT, pLKO shRNA, B-ACTIN, Table 79

Compound: Cc1ccc(C(=O)Cn2c3c(sc2=N)CCCC3)cc1 [Pifithrin alpha, Pifithrin-α]
- response of TF1 cells (biological activity, cell viability) [1]: did not significantly respond
- biological activity of CD34+ cells (cell viability) [2]: little or no effect

Compound: Cc1ccc(-c2cn3c4c(sc3n2)CCCC4)cc1 [Cyclic-pifithrin alpha, Cyclic Pifithrin-a]
- response of TF1 cells (biological activity, cell viability) [1]: did not significantly respond

Compound: RPS19_sh5: shRNA targeting RPS19 in the constitutive pLKO plasmid, SEQ ID NO 32576 (CGGCGTCATGCCCAGCCACTT; listed as Homo sapiens)
- Cell density [3]: 962,000 cells/mll
- increase in expression of p21 [4]: 5.8 fold
- RQ, ALAS2 ([4]; pLKO shRNA, B-ACTIN, Table 79): 1.51
- RQ, BCLXL ([4]; pLKO shRNA, B-ACTIN, Table 79): 0.99
- RQ, HBB [4, 7]: 0.75
- RQ, HBB [4, 8]: 0.15
- RQ, MYC ([4]; pLKO shRNA, B-ACTIN, Table 79): 1.43
- RQ, P53 [4, 9]: 1.41
- RQ, RPL11 [4, 9]: 1.09
- RQ, RPS19 [4, 10]: 0.65
- RQ, RPS19 [4, 11]: 0.15
- RQ, p21 ([4]; pLKO shRNA, B-ACTIN, Table 79): 5.75
- RQ, p53 ([4]; pLKO shRNA, B-ACTIN, Table 79): 0.74

Compound: COc1ccc(C2=N[C@@H](c3ccc(Cl)cc3)[C@@H](c3ccc(Cl)cc3)N2C(=O)N2CCNC(=O)C2)c(OC(C)C)c1 (racemic) [Nutlin 3]
- response of TF1 cells (biological activity, cell viability) [1]: did not significantly respond
- biological activity of CD34+ cells (cell viability) [2]: reduced biological activity

Compound: COc1ccc(C2=N[C@@H](c3ccc(Cl)cc3)[C@@H](c3ccc(Cl)cc3)N2C(=O)N2CCNC(=O)C2)c(OC(C)C)c1 [Nutlin 3a]
- response of TF1 cells (biological activity, cell viability) [1]: did not significantly respond
- biological activity of CD34+ cells (cell viability) [2]: reduced biological activity

Compound: RPS19_sh4: shRNA targeting RPS19 in the constitutive pLKO plasmid, SEQ ID NO 32575 (GCTTGCTCCCTACGATGAGAA; listed as Homo sapiens)
- Cell density [3]: 124,000 cells/mll
- increase in expression of p21 [4]: 12.8 fold
- RQ, ALAS2 ([4]; pLKO shRNA, B-ACTIN, Table 79): 0.16
- RQ, BCLXL ([4]; pLKO shRNA, B-ACTIN, Table 79): 0.87
- RQ, HBB [4, 7]: 0.42
- RQ, HBB [4, 8]: 0.03
- RQ, MYC ([4]; pLKO shRNA, B-ACTIN, Table 79): 1.03
- RQ, P53 [4, 9]: 1.24
- RQ, RPL11 [4, 9]: 1.02
- RQ, RPS19 [4, 10]: 1.54
- RQ, RPS19 [4, 11]: 0.43
- RQ, p21 ([4]; pLKO shRNA, B-ACTIN, Table 79): 12.78
- RQ, p53 ([4]; pLKO shRNA, B-ACTIN, Table 79): 1.74

Compound: RPS19_sh1 (CTACGATGAGAACTGGTTCT; expressed or natural sequence; listed as Homo sapiens)
- RQ, ALAS2 ([4]; pLKO shRNA, B-ACTIN, Table 79): 0.02
- RQ, BCLXL ([4]; pLKO shRNA, B-ACTIN, Table 79): 0.34
- RQ, HBB [4, 7]: 0.04
- RQ, HBB [4, 8]: 0.00
- RQ, MYC ([4]; pLKO shRNA, B-ACTIN, Table 79): 0.52
- RQ, P53 [4, 9]: 1.34
- RQ, RPL11 [4, 9]: 0.74
- RQ, RPS19 [4, 10]: 0.59
- RQ, RPS19 [4, 11]: 0.47
- RQ, p21 ([4]; pLKO shRNA, B-ACTIN, Table 79): 0.53
- RQ, p53 ([4]; pLKO shRNA, B-ACTIN, Table 79): 0.65
- RQ of HBB [5]: 2.28
- RQ of RPL11 [5]: 1.52
- RQ of p21 [5]: 1.35

Compound: Cn1cncc1[C@@](N)(c1ccc(Cl)cc1)c1ccc2c(c1)c(-c1cccc(Cl)c1)cc(=O)n2C [Tipifarnib]
- # of genes having significantly altered expression [6]: 34
